pIC50: −log10 of the molar value.
Legend:
EXO1 [1] = target: T1, EXO1 (Homo sapiens, UniProt Q9UQ84); test: FRET-based EXO1 exonuclease activity assay, dose-response; type: biochemical; conditions: nick substrate, 30 min, 37 °C
T1 construct: made in house
T1 sequence (Q9UQ84 1-846): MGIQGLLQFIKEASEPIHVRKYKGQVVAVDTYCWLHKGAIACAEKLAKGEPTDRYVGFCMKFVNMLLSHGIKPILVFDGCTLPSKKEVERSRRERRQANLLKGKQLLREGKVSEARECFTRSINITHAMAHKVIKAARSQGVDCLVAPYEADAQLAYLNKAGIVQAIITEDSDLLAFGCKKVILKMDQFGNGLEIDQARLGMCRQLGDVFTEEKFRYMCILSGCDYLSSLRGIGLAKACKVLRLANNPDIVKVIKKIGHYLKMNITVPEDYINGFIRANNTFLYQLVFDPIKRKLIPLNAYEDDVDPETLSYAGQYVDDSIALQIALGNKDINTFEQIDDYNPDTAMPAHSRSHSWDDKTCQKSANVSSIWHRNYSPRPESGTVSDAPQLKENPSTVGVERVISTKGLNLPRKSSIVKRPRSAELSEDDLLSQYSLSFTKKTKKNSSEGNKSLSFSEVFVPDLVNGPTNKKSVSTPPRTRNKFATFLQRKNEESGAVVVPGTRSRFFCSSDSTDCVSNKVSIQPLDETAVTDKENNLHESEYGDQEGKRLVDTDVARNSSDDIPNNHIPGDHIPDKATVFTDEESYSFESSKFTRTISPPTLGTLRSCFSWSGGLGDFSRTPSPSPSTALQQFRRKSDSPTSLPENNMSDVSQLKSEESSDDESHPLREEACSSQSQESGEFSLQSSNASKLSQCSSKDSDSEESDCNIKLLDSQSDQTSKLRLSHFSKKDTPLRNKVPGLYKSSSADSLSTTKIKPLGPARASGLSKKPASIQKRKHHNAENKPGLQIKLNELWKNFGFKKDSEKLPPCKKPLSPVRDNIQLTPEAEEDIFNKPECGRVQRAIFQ
From the text: We developed a cell-free in vitro assay to detect EXO1 exonuclease activity based on FRET quenching. […] A ZEN quencher and IowaBlackFQ quencher were attached to the downstream oligo internally and at the 3' end, respectively, to suppress FAM signal. Two quenchers were used to provide better quenching effects than did a single quencher, as recommended by the manufacturer (IDT). The sequence of the nick substrate was as follows: up-primer: [NT]; template: [NT]; and probe: […] . When EXO1 cleaved the nick substrate, the FAM-labeled nucleotide was untethered from the substrate and yielded a bright green fluorescence. […] Fluorescent signals were measured after a 30 min incubation. […] Data were normalized by subtracting the relative fluorescence unit (RFU) of the blank sample from that of each EXO1-containing reaction. The relative activity of individual compounds was subsequently calculated by setting the corrected RFU of EXO1 with DMSO as 100% and comparing the corrected RFU for each condition to the DMSO value. Each assay was performed by sequentially adding experimental compounds, the EXO1 enzyme, and the DNA substrate to minimize starting differences.

FEN1 = target: T2, FEN1 (Homo sapiens, UniProt P39748); test: Analogous FRET-based counter screen with purified FEN1; type: biochemical; conditions: FRET-based assay, maximum inhibitor concentration 100 μM
T2 construct: made in house
Method: Data were normalized by subtracting the relative fluorescence unit (RFU) of the blank sample from that of each EXO1-containing reaction. The relative activity of individual compounds was subsequently calculated by setting the corrected RFU of EXO1 with DMSO as 100% and comparing the corrected RFU for each condition to the DMSO value. Each assay was performed by sequentially adding experimental compounds, the EXO1 enzyme, and the DNA substrate to minimize starting differences. […] Following IC50 screening, an analogous FRET-based assay was performed using purified FEN1 to assess the EXO1 specificity of each compound.
For subsequent hit confirmation, 84 compounds from the primary screen were picked from our internal stock and subjected to a dose-dependent response assay starting at 100 μM with 3-fold serial dilution. To analyze the data from the dose-dependent response assay, IC50 values for each hit were calculated through nonlinear regression analysis using GraphPad Prism 10 (GraphPad Software, Inc.). […] Subsequently, a counter screen was performed to eliminate potential false-positive hits. To accomplish this, we established an analogous FRET assay using the purified FEN1 enzyme in place of EXO1.

MDA-MB-231 cells = test: Gel-based phospho-RPA end resection assay; type: cell-based, human; conditions: inhibitor overnight then 2 μM CPT 2 h, C5 10 μM
Method: The levels of RPA32 and phosphorylated RPA32 (S33) were analyzed by Western blotting using antibodies against RPA32 and phosphorylated RPA32 (S33). The total level of tubulin was used as a control. (b) Ratio of P-RPA:RPA levels calculated from panel a. […] U2OS cells carrying a GFP reporter for HR were infected with adenovirus expressing the I-SceI restriction enzyme. […] U2OS cells carrying a GFP reporter for HR were infected with adenovirus expressing the I-SceI restriction enzyme. […] For panels c and d, after 48 h, the cells were harvested, and the GFP-positive cells were analyzed by flow cytometry. Values are the mean ± S.D. of three independent experiments.
The treated cells were then lysed in the SDS-PAGE sample buffer, and the lysate was separated by SDS-PAGE prior to immobilization on a nitrocellulose membrane and Western blotting. Antibodies against unphosphorylated RPA, S33-P-RPA2, and tubulin were subsequently assayed according to the manufacturer’s recommendations. The ratio of P-RPA/RPA levels were quantified via ImageJ.

MDA-MB-468 = test: Cell line drug profiling, CellTiter Glo; type: cell-based, human
Method: (§1) We tested the cytotoxicity of representative compounds from the seven EXO1i scaffolds against a subset of the NCI-60 cell line panel along with three additional pancreatic cell lines (FG, AsPC1, and CaPan2). In general, cells were seeded in 384-well tissue culture-treated plates overnight and treated with various concentrations of each hit compound (a serial 3-fold dilution from 50 μM for all tested hits). Each concentration was performed in duplicate. Cell viability was then measured by CellTiter Glo (Promega) after 72 h of treatment.

SF-295 = test: Cell line drug profiling, CellTiter Glo; type: cell-based, human
Method: as §1

EXO1 [2] = target: T1, EXO1; test: Thermal shift assay; type: binding; conditions: maximum shift in Tm of EXO1 vs DMSO, increasing inhibitor concentrations
Method: To assess for changes in the thermal stability of EXO1 protein in response to treatment with candidate small molecule inhibitors or DMSO (vehicle control), the thermal shift assay (Applied Biosystems Protein Thermal Shift Dye Kit, Cat. #4461146) was utilized. The protein melt reaction mix consisted of freshly prepared 10× thermal shift dye, purified EXO1 enzyme (1 μg/uL), thermal shift buffer, DMSO or inhibitors, and sterilized Milli-Q water. A drug-free supermix was premade and dispensed in 96-well PCR plates followed by the addition of DMSO or inhibitors with increasing concentration. The reaction plate was heated from 10 to 98 °C at a rate of 0.5° per 10 s cycle, and the fluorescence intensity of individual wells was measured at 490/530 nm using a BioRad CFX96 Touch Real-Time PCR System. The fluorescence measurements of three technical replicates per treatment condition were then averaged to calculate melting temperature shift (ΔT m) as a readout for compound binding affinity.

ACHN = test: Cell line drug profiling, CellTiter Glo; type: cell-based; conditions: Homo sapiens, Kidney, 72 h
Method: as §1

AsPC1 = test: Cell line drug profiling, CellTiter Glo; type: cell-based; conditions: Homo sapiens; AsPC1, Pancreatic, 72 h
Method: as §1

BT549 = test: Cell line drug profiling, CellTiter Glo; type: cell-based; conditions: Homo sapiens, BT-549; BT549, Breast, 72 h
Method: as §1

CCRF-CEM = test: Cell line drug profiling, CellTiter Glo; type: cell-based; conditions: Homo sapiens, Leukemia, 72 h
Method: as §1

CaPan2 = test: Cell line drug profiling, CellTiter Glo; type: cell-based; conditions: Homo sapiens, Capan-2; CaPan2, Pancreatic, 72 h
Method: as §1

DU145 (B3) = test: Cell line drug profiling, CellTiter Glo; type: cell-based; conditions: Homo sapiens, DU-145, Prostate, 72 h
Method: as §1

DU145 = test: Cell line drug profiling, CellTiter Glo; type: cell-based; conditions: Homo sapiens, DU-145; DU145, Prostate, 72 h
Method: as §1

FG = test: Cell line drug profiling, CellTiter Glo; type: cell-based; conditions: Homo sapiens, Pancreatic, 72 h
Method: as §1

H23 = test: Cell line drug profiling, CellTiter Glo; type: cell-based; conditions: Homo sapiens, NCI-H23; H23, Lung, 72 h
Method: as §1

HL-60(TB) = test: Cell line drug profiling, CellTiter Glo; type: cell-based; conditions: Homo sapiens, Leukemia, 72 h
Method: as §1

HS 578T = test: Cell line drug profiling, CellTiter Glo; type: cell-based; conditions: Homo sapiens, Breast, 72 h
Method: as §1

IGR-OV1 = test: Cell line drug profiling, CellTiter Glo; type: cell-based; conditions: Homo sapiens, IGROV-1; IGR-OV1, Ovarian, 72 h
Method: as §1

MCF7 (B3) = test: Cell line drug profiling, CellTiter Glo; type: cell-based; conditions: Homo sapiens, Breast, 72 h
Method: as §1

MCF7 = test: Cell line drug profiling, CellTiter Glo; type: cell-based; conditions: Homo sapiens; MCF7, Breast, 72 h
Method: as §1

MDA-MB-231 = test: Cell line drug profiling, CellTiter Glo; type: cell-based; conditions: Homo sapiens; MDA-MB-231, Breast, 72 h
Method: as §1

NCI/ADR-RES = test: Cell line drug profiling, CellTiter Glo; type: cell-based; conditions: Homo sapiens, Ovarian, 72 h
Method: as §1

OVCAR-3 = test: Cell line drug profiling, CellTiter Glo; type: cell-based; conditions: Homo sapiens; OVCAR-3, Ovarian, 72 h
Method: as §1

OVCAR-4 = test: Cell line drug profiling, CellTiter Glo; type: cell-based; conditions: Homo sapiens; OVCAR-4, Ovarian, 72 h
Method: as §1

OVCAR-5 = test: Cell line drug profiling, CellTiter Glo; type: cell-based; conditions: Homo sapiens; OVCAR-5, Ovarian, 72 h
Method: as §1

OVCAR-8 = test: Cell line drug profiling, CellTiter Glo; type: cell-based; conditions: Homo sapiens; OVCAR-8, Ovarian, 72 h
Method: as §1

PC3 = test: Cell line drug profiling, CellTiter Glo; type: cell-based; conditions: Homo sapiens, PC-3; PC3, Prostate, 72 h
Method: as §1

SF-268 = test: Cell line drug profiling, CellTiter Glo; type: cell-based; conditions: Homo sapiens; SF-268, Central Nervous System, 72 h
Method: as §1

SK-MEL-28 = test: Cell line drug profiling, CellTiter Glo; type: cell-based; conditions: Homo sapiens; SK-MEL-28, Melanoma, 72 h
Method: as §1

SKOV-3 = test: Cell line drug profiling, CellTiter Glo; type: cell-based; conditions: Homo sapiens, SK-OV-3; SKOV-3, Ovarian, 72 h
Method: as §1

SNB-19 = test: Cell line drug profiling, CellTiter Glo; type: cell-based; conditions: Homo sapiens; SNB-19, Central Nervous System, 72 h
Method: as §1

T-47D = test: Cell line drug profiling, CellTiter Glo; type: cell-based; conditions: Homo sapiens, T47D, Breast, 72 h
Method: as §1

U251 = test: Cell line drug profiling, CellTiter Glo; type: cell-based; conditions: Homo sapiens, U-251; U251, Central Nervous System, 72 h
Method: as §1

UACC-257 = test: Cell line drug profiling, CellTiter Glo; type: cell-based; conditions: Homo sapiens; UACC-257, Melanoma, 72 h
Method: as §1

UO-31 = test: Cell line drug profiling, CellTiter Glo; type: cell-based; conditions: Homo sapiens; UO-31, Kidney, 72 h
Method: as §1

T2 sequence (P39748 whole entry): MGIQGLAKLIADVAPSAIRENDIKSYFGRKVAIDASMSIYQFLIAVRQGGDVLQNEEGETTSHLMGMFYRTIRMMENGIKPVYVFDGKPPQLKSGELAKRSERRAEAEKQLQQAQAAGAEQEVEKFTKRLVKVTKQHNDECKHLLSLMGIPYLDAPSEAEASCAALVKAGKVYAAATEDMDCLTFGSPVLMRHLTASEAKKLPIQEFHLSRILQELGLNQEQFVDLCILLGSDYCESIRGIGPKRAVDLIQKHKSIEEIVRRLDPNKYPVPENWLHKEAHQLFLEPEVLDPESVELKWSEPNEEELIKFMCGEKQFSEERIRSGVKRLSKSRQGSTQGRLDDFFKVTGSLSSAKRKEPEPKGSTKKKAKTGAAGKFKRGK

Cc1c(Cl)cccc1NCc1cc(=O)n2nc(-c3ccc(C(C)(C)C)cc3)nc2[nH]1 [D351]
pIC50 (EXO1 [1]): 5.10 | pIC50 (FEN1): < 4.00

O=C(O)c1c[nH]c2c([N+](=O)[O-])cccc2c1=O [C5, reference compound]
CPT-induced P-RPA levels (DNA end resection) (MDA-MB-231 cells): significant reduction

O=S(=O)(Nc1nc2n(n1)C(c1ccc(F)cc1)C=C(c1ccccc1)N2)c1ccc(Cl)cc1 (stereo not shown) [D413-0213]
pIC50 (MDA-MB-468; MDA-MB-468, Breast, 72 h): 4.70 | pIC50 (SF-295; SF-295, Central Nervous System, 72 h): 4.40

Cc1ccccc1C(=O)Nc1ccc(N2CCN(c3ccccc3Cl)CC2)c(C(=O)O)c1 [G889]
pIC50 (FEN1): < 4.00 | ΔT m (EXO1 [2]): ~1 °C

O=C(Nc1ccc(N2CCC(Cc3ccccc3)CC2)cc1C(=O)O)c1ccccc1Cl [F685]
pIC50 (FEN1): < 4.00 | pIC50 (ACHN): 4.70 | pIC50 (AsPC1): 4.36 | pIC50 (BT549): 4.75 | pIC50 (CCRF-CEM): 4.83 | pIC50 (CaPan2): 4.35 | pIC50 (DU145 (B3)): 4.85 | pIC50 (DU145): 4.90 | pIC50 (FG): < 4.30 | pIC50 (H23): 4.63 | pIC50 (HL-60(TB)): 4.76 | pIC50 (HS 578T): 4.64 | pIC50 (IGR-OV1): 4.74 | pIC50 (MCF7 (B3)): 4.43 | pIC50 (MCF7): 4.36 | pIC50 (MDA-MB-231): 4.50 | pIC50 (NCI/ADR-RES): 4.75 | pIC50 (OVCAR-3): 5.24 | pIC50 (OVCAR-4): 4.67 | pIC50 (OVCAR-5): 4.71 | pIC50 (OVCAR-8): 4.73 | pIC50 (PC3): 4.70 | pIC50 (SF-268): 4.31 | pIC50 (SK-MEL-28): 4.33 | pIC50 (SKOV-3): 4.61 | pIC50 (SNB-19): 4.78 | pIC50 (T-47D): 4.77 | pIC50 (U251): 4.85 | pIC50 (UACC-257): 4.67 | pIC50 (UO-31): 5.08 | pIC50 (MDA-MB-468; Homo sapiens, MDA-MB-468, 72 h): 4.33 | pIC50 (SF-295; Homo sapiens, SF-295, 72 h): 4.55

O=S(=O)(Nc1nc2n(n1)C(c1ccccc1)C=C(c1ccc(Cl)cc1)N2)c1ccc(Cl)cc1 (stereo not shown) [D413]
pIC50 (FEN1): < 4.00

— publication PMC12186255, “Discovery and Characterization of Small Molecule Inhibitors Targeting Exonuclease 1 for Homologous Recombination-Deficient Cancer Therapy” (ACS Chemical Biology, 2025)
